± gives the expanded uncertainty stated by the source.

For data set [1] the following is noted: Crystal; DSC.
Data set [2] in a line: Molar enthalpy of transition or fusion. The conditions noted are these: Crystal; DSC.

Consider `c1ccc2[nH]nnc2c1` [benzotriazole], for which the Triple point temperature in data set [1] is given as 369.26 ± 1.2 K. Moreover, in data set [2], the “Molar enthalpy of transition or fusion” value amounted to 3.64 ± 0.167 kcal/mol.
